We go through 20 compounds from patent publication US7098227B2, “Disubstituted thiazolyl carboxanilides and their use as microbicides” (Bayer Cropscience AG, priority 2002, dated 2006).

The test system of one data set is Venturia inaequalis. The data set can be described thus: Venturia Test (Apple)/Protective. It counts as in vivo. The settings on record: 240 h, application rate 10 g/ha, protective spray, evaluation 10 days after inoculation, 100% = no infection, read-out: % Efficacy. The procedure: Venturia Test (Apple)/Protective [table] To produce a suitable preparation of active compound, 1 part by weight of active compound is mixed with the stated amounts of solvent and the emulsifier, and the concentrate is diluted with water to the desired concentration. To test for protective activity, young plants are sprayed with the preparation of active compound at the stated application rate. After the spray coating has dried on, the plants are inoculated with an aqueous conidia suspension of the apple scab pathogen Venturia inaequalis and then remain in an incubation cabin at about 20° C. and 100% relative atmospheric humidity for 1 day. The plants are then placed in a greenhouse at about 21° C. and a relative atmospheric humidity of about 90%. Evaluation is carried out 10 days after the inoculation. 0% means an efficacy which corresponds to that of the control, whereas an efficacy of 100% means that no infection is observed.

The test system of another data set is Botrytis cinerea. The data set can be described thus: Botrytis Test (Bean)/Protective. In kind it is in vivo. The settings on record: 48 h, application rate 100 g/ha, protective spray, evaluation 2 days after inoculation, 100% = no infection, read-out: % Efficacy. How it is done: Botrytis Test (Bean)/Protective [table] To produce a suitable preparation of active compound, 1 part by weight of active compound is mixed with the stated amounts of solvent and emulsifier, and the concentrate is diluted with water to the desired concentration. To test for protective activity, young plants are sprayed with the preparation of active compound at the stated application rate. After the spray coating has dried on, 2 small pieces of agar colonised by Botrytis cinerea are placed onto each leaf. The inoculated plants are then placed in a dark chamber at about 20° C. and 100% relative atmospheric humidity. 2 days after the inoculation, the size of the infected areas on the leaves is evaluated. 0% means an efficacy which corresponds to that of the control, whereas an efficacy of 100% means that no infection is observed.

Data set [1] in a line: logP determination by HPLC on reverse-phase column (C 18), EEC Directive 79/831 Annex V.A8. It counts as physicochemical. As to conditions: 43° C.; for chromatographic logP: reverse-phase HPLC column (C 18), pH 2.3, pH 2.3, 0.1% aqueous phosphoric acid/acetonitrile gradient. The procedure:
The logP values given in the tables and Preparation Examples above are determined in accordance with EEC Directive 79/831 Annex V.A8 by HPLC (High Performance Liquid Chromatography) on a reverse-phase column (C 18). Temperature: 43° C. The determination is carried out in the acidic range at pH 2.3 using the mobile phases 0.1% aqueous phosphoric acid and acetonitrile; linear gradient from 10% acetonitrile to 90% acetonitrile. Calibration is carried out using unbranched alkan-2-ones (of 3 to 16 carbon atoms), with known logP values (determination of the logP values by the retention times using linear interpolation between two successive […]).

The test system of a further data set is Sphaerotheca fuliginea. Description: Sphaerotheca Test (Cucumber)/Protective. In kind it is in vivo. The settings on record: Podosphaera fuliginea, 168 h, application rate 10 g/ha, protective spray, evaluation 7 days after inoculation, 100% = no infection, read-out: % Efficacy. The procedure: Sphaerotheca Test (Cucumber)/Protective [table] To produce a suitable preparation of active compound, 1 part by weight of active compound is mixed with the stated amounts of solvent and emulsifier, and the concentrate is diluted with water to the desired concentration. To test for protective effectivity, the young plants are sprayed with the preparation of active compound at the stated application rate. After the spray coating has dried on, the plants are inoculated with an aqueous spore suspension of Sphaerotheca fuliginea. The plants are then placed in a greenhouse at about 23° C. and a relative atmospheric humidity of about 70%. Evaluation is carried out 7 days after the inoculation. 0% means an efficacy which corresponds to that of the control, whereas an efficacy of 100% means that no infection is observed.

The test system of another data set is Rhizoctonia solani. Description: In vitro Test for the ED50 Determination in Microorganisms. In kind it is cell-based. As to conditions: 50% inhibition of fungal growth, tested at 0.1, 1, 10 and 100 ppm, 22° C., 3–5 days, photometric 620 nm. How it is done:
(§1) In vitro Test for the ED50 Determination in Microorganisms A methanolic solution of the active compound to be tested, mixed with the emulsifier PS16, is pipetted into the wells of microtitre plates. After the solvent has evaporated, 200 μl of potato/dextrose medium are added to each well. Beforehand, a suitable concentration of spores or mycelium of the fungus to be tested was added to the medium. The resulting concentrations of the active compound are 0.1, 1, 10 and 100 ppm. The resulting concentration of the emulsifier is 300 ppm. The plates are then incubated on a shaker at a temperature of 22° C. for 3–5 days, until sufficient growth can be observed in the untreated control. Evaluation is carried out photometrically at a wavelength of 620 nm. The dose of active compound which causes a 50% inhibition of fungal growths compared to the untreated control (ED50), is calculated from the data measured at different concentrations.

The next data set relates to Septoria tritici. The data set is described as above. It counts as cell-based. As to conditions: 50% inhibition of fungal growth, tested at 0.1, 1, 10 and 100 ppm, 22° C., 3–5 days, photometric 620 nm. How it is done:
as §1

In the case of `Cc1nc(C(F)(F)F)c(C(=O)Nc2ccccc2-c2ccc(C)c(Cl)c2)s1` [Example 18], in the data set on Venturia inaequalis, the pest or weed control at 10 g/ha worked out at 100%. For the same compound, the pest or weed control at 100 g/ha in the data set with Botrytis cinerea worked out at 99%.

The chromatographic logP is a lipophilicity value derived from retention on a column. By melting point is commonly meant the temperature, or range, at which the solid turns liquid. In the case of `Cc1nc(C(F)(F)F)c(C(=O)Nc2ccccc2-c2ccc(Cl)c(F)c2)s1` [Example 7], the melting point was in the range of 139 to 141 °C. Besides, the chromatographic logP in data set [1] came to 3.61. Also, the pest or weed control at 10 g/ha with Sphaerotheca fuliginea came to 95%. In addition, the pest or weed control at 10 g/ha with Venturia inaequalis is 100%. In addition, the pest or weed control at 100 g/ha with Botrytis cinerea worked out at 92%.

For `Cc1nc(C(F)(F)F)c(C(=O)Nc2ccccc2-c2ccc(Cl)c(C(F)(F)F)c2)s1` [Example 11], the chromatographic logP in data set [1] stood at 4.03. Further, the pest or weed control at 10 g/ha in the data set with Sphaerotheca fuliginea and in the data set with Venturia inaequalis was 100% in each case. The values for the ED50 in the data set on Rhizoctonia solani and in the data set with Septoria tritici were less than 0.1 ppm and 1.42 ppm, respectively.

In data set [1], `Cc1nc(C(F)(F)F)c(C(=O)Nc2ccccc2-c2ccc(Cl)cc2Cl)s1` [Example 17] showed a chromatographic logP of 3.86. Moreover, the pest or weed control at 10 g/ha in the data set with Sphaerotheca fuliginea turned out to be 90%. Further, the pest or weed control at 100 g/ha in the data set on Botrytis cinerea is 87%.

As to `Cc1nc(C(F)(F)F)c(C(=O)Nc2ccccc2-c2ccc(F)c(C)c2)s1` [Example 10], the results for the pest or weed control at 10 g/ha with Sphaerotheca fuliginea and in the data set with Venturia inaequalis were 98% and 100%, respectively. In addition, in the data set with Botrytis cinerea, the pest or weed control at 100 g/ha was found to be 95%. The ED50 in the data set with Rhizoctonia solani and in the data set with Septoria tritici was <0.1 <0.1 ppm each time.

`Cc1nc(C(F)(F)F)c(C(=O)Nc2ccccc2-c2ccc(OC(F)(F)F)c(C(F)(F)F)c2)s1` [Example 13] yielded a chromatographic logP in data set [1] of 4.08. In addition, the pest or weed control at 10 g/ha in the data set with Sphaerotheca fuliginea amounted to 85%.

As to `Cc1nc(C(F)(F)F)c(C(=O)Nc2ccccc2-c2ccc(C)c(C(F)(F)F)c2)s1` [Example 12], the chromatographic logP in data set [1] was found to be 4.03. In addition, the pest or weed control at 10 g/ha in the data set on Sphaerotheca fuliginea turned out to be 100%. The ED50 is recorded as less than 0.1 ppm in the data set on Rhizoctonia solani and 3.16 ppm in the data set with Septoria tritici.

As for `Cc1nc(C(F)(F)F)c(C(=O)Nc2ccccc2I)s1` [Example (IV-1), N-(2-iodophenyl)-2-methyl-4-(trifluoromethyl)-1,3-thiazol-5-carboxamide], in data set [1], the chromatographic logP was 2.81.

In the case of `Cc1nc(C(F)(F)F)c(C(=O)Nc2ccccc2Br)s1` [Example (IV-2), N-(2-bromophenyl)-2-methyl-4-(trifluoromethyl)-1,3-thiazol-5-carboxamide], the chromatographic logP in data set [1] amounted to 2.79.

In data set [1], `Nc1ccccc1-c1ccc(F)c(Cl)c1` [Example (III-1), 3′-chloro-4′-fluoro-1,1′-biphenyl-2-amine] returned a chromatographic logP of 3.01.

`Cc1nc(C(F)(F)F)c(C(=O)Nc2ccccc2-c2ccc(Cl)cc2C)s1` [Example 16] returned a chromatographic logP in data set [1] of 4.23. The figures for the ED50 in the data set with Rhizoctonia solani and with Septoria tritici were 0.45 ppm and 0.89 ppm, respectively.

As for `Cc1nc(C(F)(F)F)c(C(=O)Nc2ccccc2-c2ccc(F)cc2)s1` [Example 3.37, reference compound], the pest or weed control at 10 g/ha was 20% with Sphaerotheca fuliginea and 32% in the data set with Venturia inaequalis. Besides, the pest or weed control at 100 g/ha in the data set on Botrytis cinerea was determined as 50%. Also, the results for the ED50 with Rhizoctonia solani and in the data set with Septoria tritici were greater than 100 ppm and 84.24 ppm, respectively.

For `Cc1nc(C(F)(F)F)c(C(=O)Nc2ccccc2-c2cc(F)cc(F)c2)s1` [Example 5], the melting point was in the range of 133 to 134 °C. For the same compound, in data set [1], the chromatographic logP came to 3.35. Moreover, the pest or weed control at 10 g/ha with Venturia inaequalis was found to be 94%.

On to `Cc1nc(C(F)(F)F)c(C(=O)Nc2ccccc2-c2ccc(F)cc2F)s1` [Example 6], for which the chromatographic logP in data set [1] came out at 3.21. The pest or weed control at 10 g/ha in the data set with Venturia inaequalis turned out to be 99%.

Compound `Cc1nc(C(F)(F)F)c(C(=O)Nc2ccccc2-c2ccc(F)c(C(F)(F)F)c2)s1` [Example 9] returned a chromatographic logP in data set [1] of 3.76. Moreover, the pest or weed control at 10 g/ha in the data set with Sphaerotheca fuliginea was 90%.

The compound `Cc1nc(C(F)(F)F)c(C(=O)Nc2ccccc2-c2ccc(F)c(F)c2)s1` [Example 4] displayed a melting point of 120 to 122 °C. Also, the chromatographic logP in data set [1] was 3.31. Besides, in the data set on Sphaerotheca fuliginea, the pest or weed control at 10 g/ha turned out to be 90%. The pest or weed control at 10 g/ha in the data set with Venturia inaequalis is 100%.

The term logP denotes the decadic logarithm of the partition coefficient of the neutral form, usually between octanol and water. A higher logP goes with higher lipophilicity. Compound `Cc1nc(C(F)(F)F)c(C(=O)Nc2ccccc2-c2ccc(F)c(Cl)c2)s1` [Example 1, N-(3′-chloro-4′-fluoro-1,1′-biphenyl-2-yl)-2-methyl-4-(trifluoromethyl)-1,3-thiazol-5-carboxamide] displayed a logP in data set [1] (pH 2.3, 0.1% aqueous phosphoric acid/acetonitrile gradient, listed as 2) of 3.60. For the same compound, the chromatographic logP in data set [1] stood at 3.58. For the same compound, the pest or weed control at 10 g/ha worked out at 83% with Sphaerotheca fuliginea and 100% with Venturia inaequalis. Further, the pest or weed control at 100 g/ha with Botrytis cinerea is 82%.

`Cc1nc(C(F)(F)F)c(C(=O)Nc2ccccc2-c2cc(Cl)cc(Cl)c2)s1` [Example 14] showed a chromatographic logP in data set [1] of 3.63. For the same compound, in the data set on Venturia inaequalis, the pest or weed control at 10 g/ha was found to be 100%. In addition, the ED50 in the data set on Rhizoctonia solani was less than 0.1 ppm; in the data set on Septoria tritici, 0.32 ppm.

`Cc1nc(C(F)(F)F)c(C(=O)Nc2ccccc2-c2ccc(Cl)cc2F)s1` [Example 19]: the chromatographic logP in data set [1] amounted to 3.52. Moreover, the pest or weed control at 10 g/ha is 81% in the data set with Sphaerotheca fuliginea and 100% in the data set with Venturia inaequalis. In addition, the pest or weed control at 100 g/ha in the data set with Botrytis cinerea came out at 99%.

With `Cc1nc(C(F)(F)F)c(C(=O)Nc2ccccc2-c2ccc(Cl)cc2)s1` [reference compound], the pest or weed control at 10 g/ha in the data set with Sphaerotheca fuliginea was determined as 30%; in the data set with Venturia inaequalis it was 76%. The pest or weed control at 100 g/ha with Botrytis cinerea was found to be 76%. The ED50 in the data set on Rhizoctonia solani and in the data set with Septoria tritici was >100>100 ppm in each case.
